Consider 57 compounds from patent publication US9868728B2, “Quinazoline derivatives, compositions, and uses related thereto” (Emory University, priority 2010, dated 2018).

For the test, the target named is T1, NOX2 (Homo sapiens, UniProt P04839).
T1 construct: isolated plasma membranes from human neutrophils as a source for Nox2-p22phox; from tissue; host or cells: Plasma membranes of human neutrophils (Nox2-p22phox); cytosolic factors recombinant from E. coli
T1 sequence (P04839 2-570 limits assumed): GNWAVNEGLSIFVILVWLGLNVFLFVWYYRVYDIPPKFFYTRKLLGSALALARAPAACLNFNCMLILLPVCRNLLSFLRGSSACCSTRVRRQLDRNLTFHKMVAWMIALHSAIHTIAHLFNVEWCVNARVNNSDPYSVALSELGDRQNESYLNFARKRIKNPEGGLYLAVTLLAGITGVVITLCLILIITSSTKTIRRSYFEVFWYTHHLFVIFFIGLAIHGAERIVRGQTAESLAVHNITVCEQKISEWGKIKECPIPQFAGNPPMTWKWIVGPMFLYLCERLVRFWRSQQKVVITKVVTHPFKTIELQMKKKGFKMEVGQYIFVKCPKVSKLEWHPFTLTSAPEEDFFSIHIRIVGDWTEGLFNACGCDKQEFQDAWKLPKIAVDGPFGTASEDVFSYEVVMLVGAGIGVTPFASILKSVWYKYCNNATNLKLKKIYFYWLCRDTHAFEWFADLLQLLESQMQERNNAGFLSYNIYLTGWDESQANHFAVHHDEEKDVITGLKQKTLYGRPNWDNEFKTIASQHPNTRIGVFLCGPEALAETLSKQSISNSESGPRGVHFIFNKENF
T1 sequence (P13498 2-195 partner limits assumed): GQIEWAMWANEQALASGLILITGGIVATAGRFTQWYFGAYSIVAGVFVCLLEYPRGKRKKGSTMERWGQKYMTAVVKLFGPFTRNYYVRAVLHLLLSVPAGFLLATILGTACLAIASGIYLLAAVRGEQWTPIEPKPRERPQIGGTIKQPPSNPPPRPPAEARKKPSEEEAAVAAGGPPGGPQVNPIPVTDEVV
Nature of the test: Nox2 cell-free assay (LO12 luminescence). The class given is biochemical. As to conditions: Nox2 cell-free system; for IC50: read-out: NOX2 IC50 (concentration giving half-maximal inhibition); for Emax: read-out: % inhibition (maximum inhibition achieved at a very high concentration of the compound). The method, then: The following compounds were tested according to the procedures provided in the experimental section. Assays were carried out using the Nox2 cell-free system. The IC50 value is the concentration giving half-maximal inhibition, while the “% inhibition” shown in parentheses is the maximum inhibition achieved at a very high concentration of the compound. 100% refers to complete inhibition within experimental error of the assay.
In certain assays a Cell-Free recombinant NOX-2 system (consisting of isolated plasma membranes from human neutrophils as a source for Nox2-p22phox, supplemented with recombinant p47phox, p67phox and Rac1Q61L (activated Rac), expressed in and isolated from of E. coli. LO12 luminescence was used as a readout to monitor enzymatic activity.
Plasma membranes were prepared from human neutrophils, which express large amounts of Nox2 and stored at −80 C until use. Membranes are mixed with recombinant, purified cytosolic regulatory proteins (p67Np47 chimera, and constitutively active Rac1 mutant Q61) and FAD, along with varying concentrations of compound, and LO12, which luminesces when it reacts with ROSvi. The reaction is started by addition of NADPH and SDS (an artificial stimulus for Nox2). See Curnutte et al., (1987) J. Biol. Chem. 262: 6450-6452.

`CCOc1cc2c(=O)n(N)c(=S)[nH]c2cc1OC` [AS2-001]: the IC50 came out at 1 µM.

Take `Nn1c(=S)[nH]c2cc3c(cc2c1=O)OCCO3` [AS2-014a]: the IC50 came to 0.6 µM.

`Nn1c(=S)[nH]c2cc3c(cc2c1=O)OCO3` [AS2-014b]: the IC50 worked out at 0.6 µM.

Regarding `O=C(O)CCCn1c(SCC(=O)Nc2nc(-c3ccccc3)cs2)nc2ccccc2c1=O` [AS140], the IC50 is above 10 µM.

For the compound `CCCCn1c(SCC(=O)Nc2cc(-c3ccc(C)cc3)no2)nc2ccccc2c1=O` [AS153a], the IC50 is above 10 µM.

Take `CN(C)CCCn1c(SCC(=O)Nc2cc(-c3ccc(Cl)cc3)no2)nc2ccccc2c1=O` [AS154b]: the IC50 was found to be 8 µM. In addition, for the setting “value in parentheses”, the Emax turned out to be 100%.

`CN(C)CCCn1c(SCC(=O)Nc2nc(-c3ccc(Br)cc3)cs2)nc2ccccc2c1=O` [AS158a]: the IC50 amounted to 5 µM. For the same compound, the Emax (value in parentheses) was 100%.

Take `CCN(CC)CCCn1c(SCC(=O)Nc2nc(-c3cccc(C(F)(F)F)c3)cs2)nc2ccccc2c1=O` [AS165b]: the IC50 was above 10 µM. Moreover, the Emax (value in parentheses) amounted to 80%.

With `CCCN(CCC)CCCn1c(SCC(=O)Nc2nc(-c3cccc(Br)c3)cs2)nc2ccccc2c1=O` [AS173b], the IC50 was above 20 µM. Also, the Emax (value in parentheses) came to 40%.

Regarding `CN(C)CCCn1c(SCC(=O)Nc2nc(-c3cccc(C#N)c3)cs2)nc2ccccc2c1=O` [AS188], the “NOX2 IC50 (concentration giving half-maximal inhibition)” value is listed as “Not active”.

In the case of `CN(C)CCCCn1c(SCC(=O)Nc2nc(-c3cccc(Br)c3)cs2)nc2ccccc2c1=O` [AS195], the IC50 came out at 3 µM. In addition, under “value in parentheses”, the Emax amounted to 100%.

In the case of `Nn1c(=S)[nH]c2ccccc2c1=O` [AS-247], the IC50 is 1.8 µM.

Turning to `Nn1c(SCC(=O)Nc2nc(-c3ccc(Br)cc3)cs2)nc2ccccc2c1=O` [AS-248], the IC50 was determined as 12.7 µM.

With `CN(C)CCCn1c(SCC(=O)Nc2nc(-c3ccc(Br)cc3)cs2)nc2ccsc2c1=O` [AS-256], the IC50 stood at 15 µM.

Take `CN(C)CCCn1c(=S)[nH]c2c(c1=O)CCCC2` [AS-259]: the IC50 worked out at 7.5 µM.

On to `CN(C)CCCn1c(SCC(=O)Nc2nc(-c3ccc(Br)cc3)cs2)nc2c(c1=O)CCCC2` [AS-260], for which the IC50 was determined as 17.5 µM.

For the compound `COc1cc2[nH]c(=S)n(N)c(=O)c2cc1OC` [AS-261A, 3-Amino-6,7-dimethoxy-2-thioxo-2,3-dihydroquinazolin-4(1H)-one], the IC50 was 0.2 µM.

For the compound `COC(=O)c1ccc2c(=O)n(N)c(=S)[nH]c2c1` [AS-261B], the IC50 came to 0.5 µM.

As to `Nn1c(=S)[nH]c2cc(C(=O)O)ccc2c1=O` [AS-262], the IC50 was determined as 6 µM.

Turning to `COC(=O)c1ccc2c(=O)n(N(C)C)c(=S)[nH]c2c1` [AS-266], the IC50 worked out at 6 µM.

Regarding `COc1cc2[nH]c(=S)n(N(C)C)c(=O)c2cc1OC` [AS-268], the IC50 was 2.5 µM.

Regarding `COc1cc2[nH]c(=S)n(CCCCN)c(=O)c2cc1OC` [AS-269], the IC50 was 1 µM.

On to `COc1cc2[nH]c(=S)n(CCCO)c(=O)c2cc1OC` [AS-270], for which the IC50 was determined as 1 µM.

For the compound `COc1cc2[nH]c(=S)n(O)c(=O)c2cc1OC` [AS-271], the IC50 was found to be 2 µM.

As for `CCOc1cc2[nH]c(=S)n(N)c(=O)c2cc1OC` [AS-278], the IC50 came to 0.6 µM.

`Cc1ccc(-c2csc(NC(=O)CSc3nc4ccccc4c(=O)n3CCCN(C)C)n2)cc1` [Sample T5306350]: the IC50 was above 10 µM. Besides, for the setting “value in parentheses”, the Emax amounted to 90%.

Take `CC(Sc1nc2ccccc2c(=O)n1CCCO)C(=O)Nc1nc(-c2ccccc2)cs1` (stereo not drawn) [Sample T5826778]: the IC50 was above 10 µM. Moreover, the Emax (value in parentheses) was 90%.

For the compound `O=C(CSc1nc2ccccc2c(=O)n1CCCO)Nc1nc(-c2cc(F)ccc2F)cs1` [Sample T5837596], the IC50 was above 10 µM. The Emax (value in parentheses) amounted to 20%.

For the compound `CN(C)CCCn1c(=S)[nH]c2ccccc2c1=O` [TG6-17-2], the IC50 turned out to be 6.5 µM. For the same compound, the Emax (value in parentheses) was 60%.

In the case of `Cc1csc(NC(=O)CSc2nc3ccccc3c(=O)n2CCCN(C)C)n1` [TG6-18], the IC50 was above 10 µM.

`CN(C)CCCn1c(SCC(=O)Nc2cc(-c3ccc(F)cc3)n[nH]2)nc2ccccc2c1=O` [TG6-20]: the IC50 was found to be 4.5 µM. Under “value in parentheses”, the Emax was found to be 90%.

Consider `CN(C)CCCn1c(SCC(=O)NCc2ccco2)nc2ccccc2c1=O` [TG6-23], for which the IC50 was above 10 µM.

Turning to `CCN(CC)CCn1c(=S)[nH]c2ccccc2c1=O` [TG6-27-2], the IC50 was found to be 5.5 µM. Also, for the setting “value in parentheses”, the Emax came to 97%.

Regarding `COc1ccc(N(C)CCCNC(=O)c2cc(F)ccc2N)cc1` [TG6-30-2], the IC50 was 0.2 µM.

Consider `COc1ccc(N(C)CCCn2c(=S)[nH]c3ccc(F)cc3c2=O)cc1` [TG6-30], for which the IC50 was 0.1 µM. Also, the Emax (value in parentheses) is 50%.

For the compound `CN(C)CCCn1c(=O)[nH]c2ccccc2c1=O` [TG6-31], the “NOX2 IC50 (concentration giving half-maximal inhibition)” value is given as “Not active”.

`CN1CCC(n2c(=S)[nH]c3ccccc3c2=O)CC1` [TG6-33-2]: the IC50 amounted to 1 µM. Besides, the Emax (value in parentheses) is 40%.

As for `CN(C)CCn1c(=S)[nH]c2ccccc2c1=O` [TG6-35-2], the IC50 was found to be 4 µM. In addition, the Emax (value in parentheses) amounted to 50%.

As for `COc1ccc(-c2csc(NC(=O)CSc3nc4ccccc4c(=O)n3CCCN(C)C)n2)cc1` [TG6-36-2], the IC50 was determined as 11 µM. Besides, the Emax (value in parentheses) was found to be 95%.

Turning to `CN(C)CCCn1c(SCC(=O)Nc2nc(-c3ccc(Br)cc3)cs2)nc2ccccc2c1=O` [TG6-37-2], the IC50 was found to be 6 µM. Moreover, for the setting “value in parentheses”, the “% inhibition (maximum inhibition achieved at a very high concentration of the compound)” value is 95%.

In the case of `CN(C)CCCCCn1c(=S)[nH]c2ccccc2c1=O` [TG6-41], the IC50 turned out to be 5 µM. The Emax (value in parentheses) was 50%.

For `CCc1ccc(NC(=O)CSc2nc3ccccc3c(=O)n2CCCN(C)C)cc1` [TG6-43], the IC50 was above 10 µM. Further, the Emax (value in parentheses) came out at 60%.

Regarding `CN(C)CCCn1c(SCC(=O)Nc2nc(-c3cccc(F)c3)cs2)nc2ccccc2c1=O` [TG6-48], the Emax (value in parentheses) amounted to 95%.

Turning to `CCN(CC)CCn1c(SCC(=O)Nc2nc(-c3cccc(Br)c3)cs2)nc2ccccc2c1=O` [TG6-49], the IC50 stood at 2 µM. The Emax (value in parentheses) was found to be 30%.

With `O=c1c2ccccc2[nH]c(=S)n1CCN1CCCC1` [TG6-52], the IC50 turned out to be 2 µM. Further, the Emax (value in parentheses) came to 80%.

Take `O=c1c2ccccc2[nH]c(=S)n1CCN1CCCCC1` [TG6-53]: the IC50 worked out at 1.5 µM. In addition, the Emax (value in parentheses) was found to be 90%.

On to `O=c1c2ccccc2[nH]c(=S)n1CCCN1CCOCC1` [TG6-54], for which the IC50 is 2 µM. Further, the Emax (value in parentheses) was found to be 80%.

As for `CN1CCN(CCCn2c(=S)[nH]c3ccccc3c2=O)CC1` [TG6-55], the IC50 was 3 µM. Where the note is “value in parentheses”, the Emax turned out to be 60%.

As to `CCCN(CCC)CCn1c(=S)[nH]c2ccccc2c1=O` [TG6-56], the “NOX2 IC50 (concentration giving half-maximal inhibition)” value is “Not active”.

In the case of `CCN(CC)CCn1c(=S)[nH]c2ccc(Cl)cc2c1=O` [TG6-57], the IC50 stood at 6 µM. The Emax (value in parentheses) was 80%.

Take `CN(C)CCCn1c(SCC(=O)Nc2nc(-c3cccc(Br)c3)cs2)nc2ccc(Cl)cc2c1=O` [TG6-58]: the IC50 stood at 5 µM. Also, for the setting “value in parentheses”, the Emax was determined as 90%.

For `CSc1nc2ccc(Cl)cc2c(=O)n1CCC[N+](C)(C)C` [TG6-59], the IC50 is 3 µM. The Emax (value in parentheses) is 75%.

Take `CN(C)CCCn1c(=S)[nH]c2cc(Cl)ccc2c1=O` [TG6-62]: the IC50 came to 5 µM. The Emax (value in parentheses) stood at 90%.

As to `COc1cc2[nH]c(=S)n(CCCN(C)C)c(=O)c2cc1OC` [TG6-63], the IC50 worked out at 2 µM. Moreover, the Emax (value in parentheses) was 60%.

`CN(C)CCCn1c(=S)[nH]c2cc(F)c(F)cc2c1=O` [TG6-64]: the IC50 is 1 µM. In addition, the Emax (value in parentheses) came to 60%.

Regarding `CN(C)CCCn1c(=S)[nH]c2c(Cl)cc(Cl)cc2c1=O` [TG6-65], the “NOX2 IC50 (concentration giving half-maximal inhibition)” value is “Not active”.

`O=c1c2cc(Cl)ccc2[nH]c(=S)n1CCN1CCCCC1` [TG6-66]: the IC50 came out at 1.5 µM. Further, the Emax (value in parentheses) turned out to be 50%.
